Reference: patent publication US10016515B2, “DMA, a bis-benzimidazole, confers radioprotection to the intestine via Akt/NFκB dual pathway activation” (Jawaharlal Nehru University, priority 2016, dated 2018)
Where two headings read alike, the source gives them in different places.

Legend:
[1] = Tissue bio-distribution and tissue pharmacokinetics of DMA; assay type: in vivo, mouse; settings: for concentration at 4 h / concentration at 6 h / concentration at 16 h / concentration at 1 h / concentration at 2 h / half-life / Tmax / concentration at 24 h / Cmax: Balb/c, mouse; for half-life / Tmax / Cmax: 100 mg/kg oral dose
Method: Tissue samples were collected from the same mice from which blood samples were collected in both doses of DMA. Lung, liver, kidney, intestine, heart, spleen, brain were dissected and rinsed with phosphate buffer saline (PBS) and dried on blotting paper. 100 mg of tissue sample was homogenized for 20 s in chilled acetronitrile and water and further 700 μl chilled acetronitrile was added. The sample was centrifuged at 14000 rpm for 10 min and clear supernatant was collected for analysis on HPLC-MS/MS system.
(§1) A standard DMA calibration from 1-1000 ng/ml with internal standard (20 ng/ml) was quantified. Sample analysis was performed on positive ionization mode LC-MS/MS with multiple reactions monitoring (MRM, m/z Q1/Q3) of DMA (m/z 235.1/412.0, retention time (RT) 5.3 min) and internal standard (m/z 227.1/396.0, RT 6.5 min) (Agilent 6410 series). A gradient method was employed to analyze the plasma samples using mobile phase A (0.1% formic acid in water) and mobile phase B (methanol). The B % was set as 30 (0 min), 90 (10-14 min), 30 (14-24 min) with flow rate of 0.3 ml/min. An injection volume of 10 μl was used for analysis.
(§2) Peak tissue concentration (Cmax) of DMA and time to reach the Cmax (tmax) were read directly from the raw data by visual examination of mean tissue concentration-time profile. The tissue concentration-time data following oral dose were subjected to one-, two- and three-compartmental models using WinNonlin program (version 6.3; Certara Inc, Missouri, USA) to calculate the pharmacokinetic parameters. The pharmacokinetic models were compared according to maximal correlation between observed and predicted concentration, minimal sum of squared residuals, Akaike Information Criterion (AIC) and Schwarz Bayesian Criterion (SBC). However, the tissue concentration-time data following intravenous administration were subjected to non-compartmental approach.

[2] = Plasma pharmacokinetics of DMA; assay type: in vivo, mouse
Method: Oral and intravenous pharmacokinetics of DMA was performed at a dose of 100 and 50 mg/kg bw, respectively. Control mice were administered equal volume of sterile water. Blood samples were collected by cardiac puncture at 1, 2, 4, 6, 16, and 24 h after oral and intravenous administration of DMA. Plasma was spiked with Hoechst 33342 as internal standard. Plasma proteins were precipitated by adding 180 μl acetonitrile and the samples were centrifuged at 14000 rpm for 10 min at 4° C. Clear supernatant […] was taken and […] distilled water was added to get a ˜35% acetonitrile solution. The samples were injected onto HPLC-MS/MS system.
as §1, §2

Balb/c mice = assay type: in vivo; settings: 400 mg/kg oral before 8Gy TBI
[3] = liver, iv, i.v. 50 mg/kg, read-out: Tissue DMA concentration, Liver
[4] = liver, Oral 100 mg/kg, read-out: Tissue DMA concentration, Liver
[5] = lung, iv, i.v. 50 mg/kg, read-out: Tissue DMA concentration, Lung
[6] = lung, Oral 100 mg/kg, read-out: Tissue DMA concentration, Lung
[7] = spleen, iv, i.v. 50 mg/kg, read-out: Tissue DMA concentration, Spleen
[8] = spleen, Oral 100 mg/kg, read-out: Tissue DMA concentration, Spleen
[9] = Balb/c, mouse, plasma, 100 mg/kg oral

SMILES: COc1ccc(-c2nc3cc(-c4nc5cc(N6CCN(C)CC6)ccc5[nH]4)ccc3[nH]2)cc1OC [DMA, 5-(4-methylpiperazin-1-yl)-2-[2′-(3,4-dimethoxyphenyl)-5′-benzimidazolyl]benzimidazole]
- concentration at 4 h ([1]; kidney, Oral 100 mg/kg, 4 h, read-out: Tissue DMA concentration, Kidney): 1530 ng/g
- concentration at 6 h ([1]; kidney, Oral 100 mg/kg, 6 h, read-out: Tissue DMA concentration, Kidney): 643 ng/g
- concentration at 16 h ([1]; kidney, Oral 100 mg/kg, read-out: Tissue DMA concentration, Kidney): 193 ng/g
- concentration at 1 h ([1]; liver, intravenous, 50 mg/kg i.v., read-out: Concentration achieved in liver): 41600 ng/g
- concentration at 1 h ([1]; liver, iv, i.v. 50 mg/kg, 1 h, read-out: Tissue DMA concentration, Liver): 41600 ng/g
- concentration at 2 h [1, 3]: 2000 ng/g
- concentration at 4 h ([1]; liver, iv, i.v. 50 mg/kg, 4 h, read-out: Tissue DMA concentration, Liver): 30100 ng/g
- concentration at 6 h ([1]; liver, iv, i.v. 50 mg/kg, 6 h, read-out: Tissue DMA concentration, Liver): 40100 ng/g
- concentration at 16 h [1, 3]: 22200 ng/g
- half-life ([1]; liver, read-out: Half life, Liver (converted)): 4 h
- Tmax ([1]; liver, read-out: Tmax, Liver): 4 h
- concentration at 1 h ([1]; liver, Oral 100 mg/kg, 1 h, read-out: Tissue DMA concentration, Liver): 161 ng/g
- concentration at 2 h [1, 4]: 415 ng/g
- concentration at 4 h ([1]; liver, Oral 100 mg/kg, 4 h, read-out: Tissue DMA concentration, Liver): 2230 ng/g
- concentration at 6 h ([1]; liver, Oral 100 mg/kg, 6 h, read-out: Tissue DMA concentration, Liver): 735 ng/g
- concentration at 16 h [1, 4]: 691 ng/g
- concentration at 24 h [1, 4]: 192 ng/g
- concentration at 1 h ([1]; lung, intravenous, 50 mg/kg i.v., read-out: Concentration achieved in lung): 109000 ng/g
- concentration at 1 h ([1]; lung, iv, i.v. 50 mg/kg, 1 h, read-out: Tissue DMA concentration, Lung): 109000 ng/g
- concentration at 2 h [1, 5]: 2340 ng/g
- concentration at 4 h ([1]; lung, iv, i.v. 50 mg/kg, 4 h, read-out: Tissue DMA concentration, Lung): 1770 ng/g
- concentration at 6 h ([1]; lung, iv, i.v. 50 mg/kg, 6 h, read-out: Tissue DMA concentration, Lung): 1340 ng/g
- concentration at 16 h [1, 5]: 993 ng/g
- concentration at 24 h [1, 5]: 730 ng/g
- concentration at 4 h ([1]; lung, 100 mg/kg oral, at 4 h, read-out: Concentration reached in lung): 1000 ng/g
- concentration at 1 h ([1]; lung, Oral 100 mg/kg, 1 h, read-out: Tissue DMA concentration, Lung): 211 ng/g
- concentration at 2 h [1, 6]: 436 ng/g
- concentration at 4 h ([1]; lung, Oral 100 mg/kg, 4 h, read-out: Tissue DMA concentration, Lung): 1000 ng/g
- concentration at 6 h ([1]; lung, Oral 100 mg/kg, 6 h, read-out: Tissue DMA concentration, Lung): 538 ng/g
- concentration at 16 h [1, 6]: 188 ng/g
- Cmax ([1]; small intestine, read-out: Cmax, Small Intestine): 106000 ng/g
- half-life ([1]; small intestine, read-out: Half life, Small Intestine (converted)): 1.9 h
- Tmax ([1]; small intestine, read-out: Tmax, Small Intestine): 2 h
- concentration at 6 h ([1]; spleen, intravenous, 50 mg/kg i.v., read-out: Concentration achieved in spleen): 12100 ng/g
- concentration at 1 h ([1]; spleen, iv, i.v. 50 mg/kg, 1 h, read-out: Tissue DMA concentration, Spleen): 6970 ng/g
- concentration at 2 h [1, 7]: 6450 ng/g
- concentration at 4 h ([1]; spleen, iv, i.v. 50 mg/kg, 4 h, read-out: Tissue DMA concentration, Spleen): 2090 ng/g
- concentration at 6 h ([1]; spleen, iv, i.v. 50 mg/kg, 6 h, read-out: Tissue DMA concentration, Spleen): 12100 ng/g
- concentration at 16 h [1, 7]: 9600 ng/g
- concentration at 1 h ([1]; spleen, 50 mg/kg intravenous, read-out: C1 hr, Spleen): 6970 ng/g
- Cmax ([1]; spleen, read-out: Cmax, Spleen): 1310 ng/g
- half-life ([1]; spleen, read-out: Half life, Spleen (converted)): 4.2 h
- Tmax ([1]; spleen, read-out: Tmax, Spleen): 2 h
- concentration at 1 h ([1]; spleen, Oral 100 mg/kg, 1 h, read-out: Tissue DMA concentration, Spleen): 401 ng/g
- concentration at 2 h [1, 8]: 1310 ng/g
- concentration at 4 h ([1]; spleen, Oral 100 mg/kg, 4 h, read-out: Tissue DMA concentration, Spleen): 681 ng/g
- concentration at 6 h ([1]; spleen, Oral 100 mg/kg, 6 h, read-out: Tissue DMA concentration, Spleen): 558 ng/g
- concentration at 16 h [1, 8]: 254 ng/g
- Tissue DMA concentration, Intestine ([1]; i.v. 50 mg/kg, 1 h): 1260000 ng/g of tissue
- Tissue accumulation ([1]; oral and i.v.): preferential accumulation in small intestine
- Maximum concentration observed in plasma ([2]; 50 mg/kg i.v.): 4291.95 ng/mL
- Volume of distribution (Vss) ([2]; 50 mg/kg i.v.): larger than the total blood volume of mouse
- Plasma peak concentration ([2]; 100 mg/kg oral): 445.8 ng/mL
- Time to decline to basal level in plasma ([2]; 100 mg/kg oral): 16 h
- half-life ([2]; Balb/c, mouse, plasma, iv, 50 mg/kg i.v.): 2.65 h
- Tmax [2, 9]: 1.5 h
- half-life [2, 9]: 3.5 h
- AUC ([2]; Balb/c, mouse, plasma, 100 mg/kg oral, read-out: Area under curve (AUC), plasma): 669 ng·h/mL
- clearance ([2]; Balb/c, plasma, intravenous, 50 mg/kg, mouse, hepatic blood flow 5.4 L/h/kg, read-out: Systemic clearance (converted)): 195 mL/min/kg
- Clearance from plasma ([2]; oral and i.v. routes): rapid clearance
- 30-days survival rate (Balb/c mice): 90%
